Data from patent US20090124610A1, “PHARMACEUTICAL COMPOUNDS” (priority 2006, published 2009).
Where a name gives a salt, the structure may show the parent alone.

How the values were obtained:
[1] = target: T1, PKB-PIF (Homo sapiens, UniProt P31751); experiment: Measurement of PKB kinase inhibitory activity (IC50), 33P-ATP filter plate assay; type: biochemical; settings: 0.6 nM enzyme, 30 μM ATP/γ33P-ATP, 25 μM AKTide-2T substrate, 20 minutes
T1 construct: PIF (fusion partner); made in house
Source text: The inhibition of protein kinase B (PKB) activity by compounds can be determined determined essentially as described by Andjelkovic et al. (Mol. Cell. Biol. 19, 5061-5072 (1999)) but using a fusion protein described as PKB-PIF and described in full by Yang et al (Nature Structural Biology 9, 940-944 (2002)). The protein is purified and activated with PDK1 as described by Yang et al. The peptide AKTide-2T (H-A-R-K-R-E-R-T-Y-S-F-G-H-H-A-OH) obtained from Calbiochem (#123900) is used as a substrate. A final concentration of 0.6 nM enzyme is used in a buffer that includes 20 mM MOPS pH 7.2, 30 μM ATP/γ^33P-ATP and 25 μM substrate. Compounds are added in DMSO solution to a final DMSO concentration of 2.5%. The reaction is allowed to proceed for 20 minutes before addition of excess orthophosphoric acid to quench activity. The reaction mixture is transferred to a phosphocellulose filter plate where the peptide binds and the unused ATP is washed away. After washing, scintillant is added and the incorporated activity measured by scintillation counting.
The % inhibition of the PKB activity is calculated and plotted in order to determine the concentration of test compound required to inhibit 50% of the PKB activity (IC50).

[2] = target: T2, PKA catalytic domain (Homo sapiens, UniProt P17612); experiment: Measurement of PKA kinase inhibitory activity (IC50), 33P-ATP filter plate assay; type: biochemical; settings: 1 nM enzyme, 40 μM ATP/γ33P-ATP, 5 μM substrate […], 20 minutes
T2 construct: using the PKA catalytic domain from Upstate Biotechnology (#14-440); purchased Upstate Biotechnology 14-440
Description: Compounds of the invention can be tested for PK inhibitory activity using the PKA catalytic domain from Upstate Biotechnology (#14-440) and the 9 residue PKA specific peptide ([…]), also from Upstate Biotechnology (#12-257), as the substrate. A final concentration of 1 nM enzyme is used in a buffer that includes 20 mM MOPS pH 7.2, 40 μM ATP/γ^33P-ATP and 5 μM substrate. Compounds are added in dimethylsulphoxide (DMSO) solution to a final DMSO concentration of 2.5%. The reaction is allowed to proceed for 20 minutes before addition of excess orthophosphoric acid to quench activity. Unincorporated γ^33P-ATP is then separated from phosphorylated proteins on a Millipore MAPH filter plate. The plates are washed, scintillant is added and the plates are then subjected to counting on a Packard Topcount.
The % inhibition of the PKA activity is calculated and plotted in order to determine the concentration of test compound required to inhibit 50% of the […] activity (IC50).

T1 sequence (P31751 with tags, fused parts or gaps limits assumed): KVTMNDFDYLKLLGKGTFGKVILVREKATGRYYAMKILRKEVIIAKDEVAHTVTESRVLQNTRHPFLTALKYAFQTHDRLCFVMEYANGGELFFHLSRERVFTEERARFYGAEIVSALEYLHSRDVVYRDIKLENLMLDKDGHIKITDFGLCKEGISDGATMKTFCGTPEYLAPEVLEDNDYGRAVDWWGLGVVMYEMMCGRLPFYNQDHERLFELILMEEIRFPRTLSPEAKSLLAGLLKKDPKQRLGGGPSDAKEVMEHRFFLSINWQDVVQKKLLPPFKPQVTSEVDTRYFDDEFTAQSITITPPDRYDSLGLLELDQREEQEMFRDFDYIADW

SMILES | IC50 [1] [nM] | IC50 [2] [nM]
CNCC(c1ccc(Cl)cc1)c1ccc(-c2ncnc3ccsc23)cc1 (stereo not shown) [Example 1, [2-(4-Chloro-phenyl)-2-(4-thieno[3,2-d]-pyrimidin-4-yl-phenyl)-ethyl]-methyl-amine bis-trifluoroacetate] | < 1000 | < 1000
NCCC(c1ccc(Cl)cc1)c1ccc(-c2ncnc3ccsc23)cc1 (stereo not shown) [Example 2, 3-(4-Chloro-phenyl)-3-(4-thieno[3,2-d]pyrimidin-4-yl-phenyl)-propylamine] | < 1000 | 
NCC(c1ccc(Cl)cc1)N1CCN(c2ncnc3ccsc23)CC1 (stereo not shown) [Example 3, 2-(4-Chloro-phenyl)-2-(4-thieno[3,2-d]pyrimidin-4-yl-piperazin-1-yl)-ethylamine formate] | < 1000 | 
Clc1ccc(C2(c3ccc(-c4ncnc5ccsc45)cc3)CCNCC2)cc1 [Example 4, 4-{4-[4-(4-Chloro-phenyl)-piperidin-4-yl]-phenyl}-thieno[3,2-d]pyrimidine formate] | < 1000 | < 1000
NC1(C(=O)NCc2ccc(Cl)cc2)CCN(c2ncnc3ccsc23)CC1 [Example 5, 4-Amino-1-thieno[3,2-d]pyrimidin-4-yl-piperidine-4-carboxylic acid 4-chloro-benzylamide] | < 1000 | 
NC1CCN(c2ncnc3ccsc23)CC1 [Example 6, 1-Thieno[3,2-d]pyrimidin-4-ylpiperidin-4-ylamine] | < 5000 | 
NC1(Cc2ccc(Cl)cc2)CCN(c2ncnc3ccsc23)CC1 [Example 7, 4-(4-Chlorobenzyl)-1-thieno[3,2-d]pyrimidin-4-ylpiperidin-4-ylamine] | < 1000 | 
NC(c1ccc(Cl)cc1)C1CCN(c2ncnc3ccsc23)CC1 (stereo not shown) [Example 8, C-(4-Chlorophenyl)-C-(1-thieno[3,2-d]pyrimidin-4-ylpiperidin-4-yl)methylamine] | < 1000 | 
NC1CCN(c2ncnc3sccc23)CC1 [Example 9, 1-Thieno[2,3-d]pyrimidin-4-ylpiperidin-4-ylamine] | < 50000 | 
NC1CCN(c2ccnc3c2C(=O)C(=O)N3)CC1 [Example 10, 4-(4-Amino-piperidin-1-yl)-1H-pyrrolo[2,3-b]pyridine-2,3-dione] | < 50000 | 
NC1(Cc2ccc(Cl)cc2)CCN(c2ccnc3c2OCC(=O)N3)CC1 [Example 11, 8-[4-Amino-4-(4-chloro-benzyl)-piperidin-1-yl]-4H-pyrido[3,2-b][1,4]oxazin-3-one] | < 5000 | 
